From PubChem BioAssay AID2060625 (Molecular Pharmacology Branch, DTP, NCI, 2025)

Test system: 186277-243-T-J2-PDC spheroids with HUVEC/MSC, viability
Assay: Anticancer human tumor 186277-243-T-J2-PDC patient-derived colon adenocarcinoma cell line growth inhibition [CLK]
Settings: for viability, T/C: stronger effect = lower value; active = viability on the fitted dose curve at most 10% of control; inactive = the rest
How it was run: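 Patient-derived tumor cells grown as complex spheroids with HUVEC endothelial cells and mesenchymal stem cells, treated with drug combinations. Concentrations descend in half-log steps from near clinical Cmax, or from 10 microM if Cmax unknown.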

[1] = curve of first compound, second compound 0.0316 µM
[2] = curve of first compound, second compound 0.1 µM
[3] = curve of first compound, second compound 0.316 µM
[4] = curve of first compound, second compound 1 µM
[5] = curve of first compound, second compound 3.16 µM
[6] = curve of first compound, second compound 10 µM
[7] = second compound 0.0316 µM, first compound 0.0316 µM
[8] = second compound 0.0316 µM, first compound 0.1 µM
[9] = second compound 0.0316 µM, first compound 0.316 µM
[10] = second compound 0.0316 µM, first compound 1 µM
[11] = second compound 0.0316 µM, first compound 3.16 µM
[12] = second compound 0.0316 µM, first compound 10 µM
[13] = second compound 0.1 µM, first compound 0.0316 µM
[14] = second compound 0.1 µM, first compound 0.1 µM
[15] = second compound 0.1 µM, first compound 0.316 µM
[16] = second compound 0.1 µM, first compound 1 µM
[17] = second compound 0.1 µM, first compound 3.16 µM
[18] = second compound 0.1 µM, first compound 10 µM
[19] = second compound 0.316 µM, first compound 0.0316 µM
[20] = second compound 0.316 µM, first compound 0.1 µM
[21] = second compound 0.316 µM, first compound 0.316 µM
[22] = second compound 0.316 µM, first compound 1 µM
[23] = second compound 0.316 µM, first compound 3.16 µM
[24] = second compound 0.316 µM, first compound 10 µM
[25] = second compound 1 µM, first compound 0.0316 µM
[26] = second compound 1 µM, first compound 0.1 µM
[27] = second compound 1 µM, first compound 0.316 µM
[28] = second compound 1 µM, first compound 1 µM
[29] = second compound 1 µM, first compound 3.16 µM
[30] = second compound 1 µM, first compound 10 µM
[31] = second compound 3.16 µM, first compound 0.0316 µM
[32] = second compound 3.16 µM, first compound 0.1 µM
[33] = second compound 3.16 µM, first compound 0.316 µM
[34] = second compound 3.16 µM, first compound 1 µM
[35] = second compound 3.16 µM, first compound 3.16 µM
[36] = second compound 3.16 µM, first compound 10 µM
[37] = second compound 10 µM, first compound 0.0316 µM
[38] = second compound 10 µM, first compound 0.1 µM
[39] = second compound 10 µM, first compound 0.316 µM
[40] = second compound 10 µM, first compound 1 µM
[41] = second compound 10 µM, first compound 3.16 µM
[42] = second compound 10 µM, first compound 10 µM
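Also: compound exposure lasted seven days before readout.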
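For viability, T/C in this document: 100% = DMSO vehicle control wells.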

C#Cc1c(F)ccc2cc(O)cc(-c3ncc4c(N5CC6CCC(C5)N6)nc(OCC56CCCN5CC(F)C6)nc4c3F)c12 (stereo unspecified) + CNC(=O)c1ccc(Nc2nc(OC3CCCC3)c3c(-c4ccc5nc(C)oc5c4)c[nH]c3n2)c(OC)c1
active: viability, T/C [16] 10.1% | viability, T/C [17] 9.23% | viability, T/C [18] 7.22% | viability, T/C [21] 9.98% | viability, T/C [22] 7.75% | viability, T/C [23] 6.06% | viability, T/C [24] 5.84% | viability, T/C [27] 6.68% | viability, T/C [28] 8.68% | viability, T/C [29] 7.28% | viability, T/C [30] 3.31% | viability, T/C [32] 11.4% | viability, T/C [33] 6.47% | viability, T/C [34] 5.65% | viability, T/C [35] 6.73% | viability, T/C [36] 4.61% | viability, T/C [38] 9.24% | viability, T/C [39] 6.48% | viability, T/C [40] 5.74% | viability, T/C [41] 6.36% | viability, T/C [42] 3.45%
244 nM: IC50 [1]
inactive: viability, T/C [7] 85.1% | viability, T/C [8] 74.1% | viability, T/C [9] 42.3% | viability, T/C [10] 20.4% | viability, T/C [11] 15.4% | viability, T/C [12] 9.35% | viability, T/C [13] 32.4% | viability, T/C [14] 20.2% | viability, T/C [15] 12.4% | viability, T/C [19] 16.6% | viability, T/C [20] 10.6% | viability, T/C [25] 13.1% | viability, T/C [26] 9.92% | viability, T/C [31] 12% | viability, T/C [37] 15.6%
< 31.6 nM: IC50 [2] | IC50 [3] | IC50 [4] | IC50 [5] | IC50 [6]

CN1CCN(c2cc(C(=O)Nc3cc4cc(-c5cnn(C)c5)ccc4cn3)ccn2)CC1
inactive: viability, T/C (compound 0.316 µM) 23.7% [middle of 11 runs]
active: viability, T/C (compound 1 µM) 0.99% [middle of 10 runs] | viability, T/C (compound 3.16 µM) 1.22% [middle of 11 runs] | viability, T/C (compound 10 µM) 1.7% [middle of 11 runs]
192 nM [middle of 11 runs]: IC50 (compound alone, run of 08/14/2023)

C#Cc1c(F)ccc2cc(O)cc(-c3ncc4c(N5CC6CCC(C5)N6)nc(OCC56CCCN5CC(F)C6)nc4c3F)c12 (stereo unspecified) + CN1CCN(c2cc(C(=O)Nc3cc4cc(-c5cnn(C)c5)ccc4cn3)ccn2)CC1
inactive: viability, T/C [7] 110% | viability, T/C [8] 88.2% | viability, T/C [9] 76.2% | viability, T/C [10] 44% | viability, T/C [11] 29.4% | viability, T/C [12] 15.2% | viability, T/C [13] 73.7% | viability, T/C [14] 75.3% | viability, T/C [15] 29.7% | viability, T/C [16] 22.9% | viability, T/C [17] 16.3% | viability, T/C [18] 9.03% | viability, T/C [19] 16% | viability, T/C [20] 11.7%
< 31.6 nM: IC50 [3] | IC50 [4] | IC50 [5] | IC50 [6]
188 nM: IC50 [2]
891 nM: IC50 [1]
active: viability, T/C [21] 6.4% | viability, T/C [22] 4.52% | viability, T/C [23] 4.02% | viability, T/C [24] 2.36% | viability, T/C [25] 0.29% | viability, T/C [26] 0.77% | viability, T/C [27] 0.35% | viability, T/C [28] 0.39% | viability, T/C [29] 0.43% | viability, T/C [30] 0.19% | viability, T/C [31] 1.1% | viability, T/C [32] 0.65% | viability, T/C [33] 0.64% | viability, T/C [34] 1.1% | viability, T/C [35] 1.04% | viability, T/C [36] 0.26% | viability, T/C [37] 0.72% | viability, T/C [38] 0.54% | viability, T/C [39] 0.53% | viability, T/C [40] 0.64% | viability, T/C [41] 1.33% | viability, T/C [42] 0.27%

CC(CO)NC(=O)c1cc(-c2ccc(Cl)cc2)nn(-c2cnn(C)c2)c1=O (stereo unspecified) + CN1CCN(c2cc(C(=O)Nc3cc4cc(-c5cnn(C)c5)ccc4cn3)ccn2)CC1
< 31.6 nM: IC50 [3] | IC50 [4] | IC50 [5] | IC50 [6]
> 10000 nM: IC50 [1] | IC50 [2]
inactive: viability, T/C [7] 118% | viability, T/C [8] 111% | viability, T/C [9] 96.7% | viability, T/C [10] 102% | viability, T/C [11] 106% | viability, T/C [12] 112% | viability, T/C [13] 106% | viability, T/C [14] 92.2% | viability, T/C [15] 106% | viability, T/C [16] 103% | viability, T/C [17] 107% | viability, T/C [18] 97.3% | viability, T/C [19] 25% | viability, T/C [20] 27.6% | viability, T/C [21] 29.6% | viability, T/C [22] 30.5% | viability, T/C [23] 25.2% | viability, T/C [24] 35.1%
active: viability, T/C [25] 0.55% | viability, T/C [26] 0.96% | viability, T/C [27] 0.66% | viability, T/C [28] 0.35% | viability, T/C [29] 0.36% | viability, T/C [30] 0.38% | viability, T/C [31] 0.96% | viability, T/C [32] 1.12% | viability, T/C [33] 0.88% | viability, T/C [34] 1.2% | viability, T/C [35] 1.15% | viability, T/C [36] 1.66% | viability, T/C [37] 0.72% | viability, T/C [38] 0.76% | viability, T/C [39] 0.63% | viability, T/C [40] 0.88% | viability, T/C [41] 0.8% | viability, T/C [42] 0.63%
